Reference: the supplement of paper PMC10307832

Key:
Assay in all cases: relative viability (nuclei count vs DMSO), 5 days (fraction); higher = more cells survive
A-427 = test system: A-427
How it was run: (§1)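 Relative viability divides the nuclei count in treated wells by that in vehicle wells. Lung cancer cell lines were seeded in 1536-well plates, dosed by pin tool the next day, and fixed and stained after 5 days in one step with final 0.05% Triton X-100, 1% formaldehyde and 1 ug/ml Hoechst. Dosing was a single drug or a fixed anchor-drug dose plus five library-drug doses (not always all listed) in √10 steps, and values are medians of duplicate plates imaged at 4×.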

BEN = test system: BEN
How it was run: as §1

ChaGo-K-1 = test system: ChaGo-K-1
How it was run: as §1

EKVX = test system: EKVX
How it was run: as §1

LK-2 = test system: LK-2
How it was run: as §1

NCI-H1650 = test system: NCI-H1650
How it was run: as §1

NCI-H1755 = test system: NCI-H1755
How it was run: as §1

NCI-H2085 = test system: NCI-H2085
How it was run: as §1

NCI-H2228 = test system: NCI-H2228
How it was run: as §1

NCI-H2347 = test system: NCI-H2347
How it was run: as §1

NCI-H3122 = test system: NCI-H3122
How it was run: as §1

NCI-H322M = test system: NCI-H322M
How it was run: as §1

NCI-H358 = test system: NCI-H358
How it was run: as §1

NCI-H460 = test system: NCI-H460
How it was run: as §1

NCI-H520 = test system: NCI-H520
How it was run: as §1

NCI-H596 = test system: NCI-H596
How it was run: as §1

NCI-H650 = test system: NCI-H650
How it was run: as §1

NCI-H727 = test system: NCI-H727
How it was run: as §1

NCI-H838 = test system: NCI-H838
How it was run: as §1

SW 1573 = test system: SW 1573
How it was run: as §1

SW 900 = test system: SW 900
How it was run: as §1

COCC1(CO)C(=O)C2CCN1CC2 (stereo not drawn) [PRIMA-1MET] + O=C(c1cc(Cc2n[nH]c(=O)c3ccccc23)ccc1F)N1CCN(C(=O)C2CC2)CC1 [Olaparib] (partner 8 µM)
relative viability (A-427; first compound 0.2 µM): 0.918 | relative viability (A-427; first compound 0.6325 µM): 0.607 | relative viability (A-427; first compound 2 µM): 0.746 | relative viability (A-427; first compound 6.325 µM): 0.765 | relative viability (A-427; first compound 20 µM): 0.687 | relative viability (BEN; first compound 0.2 µM): 1.19 | relative viability (BEN; first compound 0.6325 µM): 1.11 | relative viability (BEN; first compound 6.325 µM): 1.12 | relative viability (BEN; first compound 20 µM): 1.07 | relative viability (ChaGo-K-1; first compound 0.2 µM): 0.461 | relative viability (ChaGo-K-1; first compound 0.6325 µM): 0.407 | relative viability (ChaGo-K-1; first compound 2 µM): 0.437 | relative viability (ChaGo-K-1; first compound 6.325 µM): 0.426 | relative viability (ChaGo-K-1; first compound 20 µM): 0.318 | relative viability (EKVX; first compound 0.2 µM): 1.01 | relative viability (EKVX; first compound 2 µM): 0.694 | relative viability (EKVX; first compound 6.325 µM): 0.825 | relative viability (EKVX; first compound 20 µM): 0.403 | relative viability (LK-2; first compound 0.2 µM): 0.823 | relative viability (LK-2; first compound 0.6325 µM): 0.632 | relative viability (LK-2; first compound 2 µM): 0.513 | relative viability (LK-2; first compound 6.325 µM): 0.423 | relative viability (LK-2; first compound 20 µM): 0.0842 | relative viability (NCI-H1650; first compound 0.2 µM): 0.75 | relative viability (NCI-H1650; first compound 0.6325 µM): 0.744 | relative viability (NCI-H1650; first compound 2 µM): 0.75 | relative viability (NCI-H1650; first compound 6.325 µM): 0.709 | relative viability (NCI-H1650; first compound 20 µM): 0.585 | relative viability (NCI-H1755; first compound 0.2 µM): 0.867 | relative viability (NCI-H1755; first compound 0.6325 µM): 0.904 | relative viability (NCI-H1755; first compound 2 µM): 0.782 | relative viability (NCI-H1755; first compound 6.325 µM): 0.805 | relative viability (NCI-H1755; first compound 20 µM): 0.817 | relative viability (NCI-H2085; first compound 0.2 µM): 0.837 | relative viability (NCI-H2085; first compound 0.6325 µM): 0.817 | relative viability (NCI-H2085; first compound 2 µM): 0.805 | relative viability (NCI-H2085; first compound 6.325 µM): 0.862 | relative viability (NCI-H2085; first compound 20 µM): 0.191 | relative viability (NCI-H2228; first compound 0.2 µM): 0.768 | relative viability (NCI-H2228; first compound 0.6325 µM): 0.522 | relative viability (NCI-H2228; first compound 2 µM): 0.762 | relative viability (NCI-H2228; first compound 6.325 µM): 0.577 | relative viability (NCI-H2228; first compound 20 µM): 0.0565 | relative viability (NCI-H2347; first compound 0.2 µM): 0.641 | relative viability (NCI-H2347; first compound 0.6325 µM): 0.517 | relative viability (NCI-H2347; first compound 2 µM): 0.559 | relative viability (NCI-H2347; first compound 6.325 µM): 0.624 | relative viability (NCI-H2347; first compound 20 µM): 0.433 | relative viability (NCI-H3122; first compound 0.2 µM): 0.661 | relative viability (NCI-H3122; first compound 0.6325 µM): 0.55 | relative viability (NCI-H3122; first compound 2 µM): 0.614 | relative viability (NCI-H3122; first compound 6.325 µM): 0.698 | relative viability (NCI-H3122; first compound 20 µM): 0.621 | relative viability (NCI-H322M; first compound 0.2 µM): 0.851 | relative viability (NCI-H322M; first compound 0.6325 µM): 0.668 | relative viability (NCI-H322M; first compound 6.325 µM): 0.772 | relative viability (NCI-H322M; first compound 20 µM): 0.568 | relative viability (NCI-H358; first compound 0.2 µM): 0.623 | relative viability (NCI-H358; first compound 0.6325 µM): 0.555 | relative viability (NCI-H358; first compound 2 µM): 0.601 | relative viability (NCI-H358; first compound 6.325 µM): 0.635 | relative viability (NCI-H358; first compound 20 µM): 0.553 | relative viability (NCI-H460; first compound 0.2 µM): 0.532 | relative viability (NCI-H460; first compound 0.6325 µM): 0.337 | relative viability (NCI-H460; first compound 2 µM): 0.384 | relative viability (NCI-H460; first compound 6.325 µM): 0.451 | relative viability (NCI-H460; first compound 20 µM): 0.162 | relative viability (NCI-H520; first compound 0.2 µM): 0.371 | relative viability (NCI-H520; first compound 2 µM): 0.38 | relative viability (NCI-H520; first compound 6.325 µM): 0.318 | relative viability (NCI-H520; first compound 20 µM): 0.144 | relative viability (NCI-H596; first compound 0.2 µM): 0.718 | relative viability (NCI-H596; first compound 0.6325 µM): 0.652 | relative viability (NCI-H596; first compound 2 µM): 0.6 | relative viability (NCI-H596; first compound 6.325 µM): 0.735 | relative viability (NCI-H596; first compound 20 µM): 0.238 | relative viability (NCI-H650; first compound 0.2 µM): 0.492 | relative viability (NCI-H650; first compound 0.6325 µM): 0.453 | relative viability (NCI-H650; first compound 2 µM): 0.339 | relative viability (NCI-H650; first compound 6.325 µM): 0.368 | relative viability (NCI-H650; first compound 20 µM): 0.187 | relative viability (NCI-H727; first compound 0.2 µM): 0.6 | relative viability (NCI-H727; first compound 0.6325 µM): 0.676 | relative viability (NCI-H727; first compound 6.325 µM): 0.527 | relative viability (NCI-H727; first compound 20 µM): 0.47 | relative viability (NCI-H838; first compound 0.2 µM): 0.788 | relative viability (NCI-H838; first compound 0.6325 µM): 0.76 | relative viability (NCI-H838; first compound 2 µM): 0.809 | relative viability (NCI-H838; first compound 6.325 µM): 0.789 | relative viability (NCI-H838; first compound 20 µM): 0.579 | relative viability (SW 1573; first compound 0.2 µM): 0.672 | relative viability (SW 1573; first compound 2 µM): 0.388 | relative viability (SW 1573; first compound 6.325 µM): 0.0574 | relative viability (SW 1573; first compound 20 µM): 0.0284 | relative viability (SW 900; first compound 0.2 µM): 1.06 | relative viability (SW 900; first compound 0.6325 µM): 0.888 | relative viability (SW 900; first compound 6.325 µM): 0.882 | relative viability (SW 900; first compound 20 µM): 0.0786
